# Entries after “also recorded” stand apart in the source; their conditions may differ. Like-named read-outs stand apart in the source and are kept apart here.
# Experiments:
# MDCK strain I cells [1] = assay: Transcellular electrical resistance (TER) of filter-grown MDCK strain I cells; type: cell-based, canine
# BBECs [2] = type: cell-based, bovine
# [3] = tested on: brain tissue from normal adult rat; assay: Phosphotyrosine (4G10) label of blood vessels in rat brain tissue exposed to pervanadate; conditions: rat brain tissue exposed to pervanadate (FIG. 10F)
# Description: In these experiments, brain sections were labelled with an antibody to phosphotyrosine (monoclonal antibody 4G10) and labelled with a polyclonal antibody to collagen type IV to outline blood vessels. In sham operated animals, 4G10 label was restricted to a few large, peripherally located, vessels with a pattern of staining consistent with tyrosine phosphorylation of proteins at the borders of cells lining the vessels. After 24 hours of MCA occlusion an increase in 4G10 label was seen associated with microvessels located at the edge of the severely damaged tissue (see FIG. 10). The increase in 4G10 label was restricted to vessels in the area of the lesion, but not every vessel was labelled. 4G10 distribution in the microvessels is similar to that seen when brain tissue from normal adult rat is exposed to pervanadate, a drug that elevates levels of phosphotyrosine by inhibiting the enzymes responsible for tyrosine dephosphorylation.
# Sections were air-dried and permeablised with 95% ethanol at −95° C. for 30 minutes followed by acetone at room temperature for 1 minute. All of the antibody incubations and washes used PBS containing 5×10^−4 M sodium vanadate. […]
# [4] = tested on: ZO-1 and associated proteins; type: cell-based, canine
# MDCK cells [5] = type: cell-based, canine
# BBECs [6] = type: cell-based, bovine; remark: listed apart in the source
# [7] = tested on: E-cadherin/catenin complex; type: cell-based, canine
# MDCK strain I cells [8] = type: cell-based, canine
# [9] = tested on: bovine brain microvessel endothelial cells (BBECs); type: cell-based
# MDCK strain I cells [10] = type: cell-based, canine; remark: listed apart in the source
# MDCK cells [11] = conditions: Volberg et al. 1992; cited from earlier work
# [12] = tested on: bovine brain microvessel endothelial cells (BBECs); conditions: BBECs as well as endothelial cells derived from human brain; previously shown (Rubin et al. 1991); cited from earlier work
# [13] = tested on: pp60^v−src transfected rat 3Y1 cells; conditions: pp60v-src transfected rat 3Y1 fibroblast cell line; Matsuyoshi et al. 1992; cited from earlier work
molecule,measurement,setting,value
pervanadate,change in TER,MDCK strain I cells [1],elicited a decrease in TER
same,reversibility of the induced decrease in TER by reducing agent if added early enough,MDCK strain I cells [1],partially reversed
same,anti-phosphotyrosine staining pattern,BBECs [2],initially caused an increase in staining at the adherens junction at the intercellular borders
same,phosphotyrosine label of blood vessels,[3],induces detectable levels of phosphotyrosine in both large and small vessels; also recorded: induces increased phosphotyrosine in both small and large blood vessels
same,tyrosine phosphorylation of ZO-1,[4],also stimulated tyrosine phosphorylation of ZO-1; also recorded: clearly resulted in the tyrosine phosphorylation
same,tyrosine phosphorylation of ZO-2,[4],clearly resulted in the tyrosine phosphorylation
same,paracellular flux of sucrose,MDCK cells [5],increase the paracellular flux of sucrose
same,tyrosine phosphorylation of proteins in whole cell lysates,BBECs [6],caused an increase in the tyrosine phosphorylation of many proteins
same,tyrosine phosphorylation of proteins in anti-E-cadherin immunoprecipitates,[7],stimulates the tyrosine phosphorylation of several catenins as well as E-cadherin; also recorded: caused an increase in the tyrosine phosphorylation of several proteins
same,tyrosine phosphorylation of α-catenin in α-catenin immunoprecipitates,[7],could not be detected
same,β-catenin content of phosphotyrosine immunoprecipitates,[7],is increased; also recorded: rapidly increased
same,tyrosine phosphorylation of proteins in whole cell lysates,MDCK strain I cells [8],caused an increase in the tyrosine phosphorylation of many proteins
same,change in TER,[9],caused a dose-dependent and rapid decrease in TER
same,anti-phosphotyrosine staining pattern,MDCK strain I cells [10],initially caused an increase in staining at the adherens junction at the intercellular borders
same,"effect on the tight junction, by immunostaining of ZO-1",MDCK cells [11],had no effect on the tight junction
same,tyrosine phosphorylation of proteins at the adherens junction,MDCK cells [11],elicited tyrosine phosphorylation of proteins at the adherens junction
Nc1ncnc2c1ncn2[C@@H]1O[C@@H]2COP(=O)(O)O[C@H]2[C@H]1O [cyclic AMP],effect of cyclic AMP on TER,[12],increases TER
"O=C(O)CN(CC(=O)O)c1ccccc1OCCOc1ccccc1N(CC(=O)O)CC(=O)O [BAPTA, bis- (O-aminophenoxy)-ethane-N,N,N′,N′-tetraacetic acid]",change in TER,"MDCK strain I cells [1]; MDCK strain I cells, preformed pervanadate 0.01-0.1 mM (FIG. 1b), PAO 1-30 μM (FIG. 2a), BAPTA 2.5-3 mM",decrease in TER
"OCCS [β-mercapto-ethanol, β-mercaptoethanol]",block of PAO-induced decrease in TER by reducing agent,MDCK strain I cells [1],not
CO[C@H]1[C@@H](OC)C[C@H](C)[C@@H](OC)C2=CC(=O)C=C(NC(=O)/C(C)=C/C=C\[C@H](OC)[C@@H](OC(N)=O)/C(C)=C/[C@@H]1C)C2=O [herbimycin A],effect of herbimycin A alone on resistance,MDCK strain I cells [1],did not affect resistance
same,effect of herbimycin A pretreatment on PAO-induced decrease in transcellular electrical resistance,MDCK strain I cells [1],attenuated the decrease in transcellular electrical resistance
same,effect of herbimycin A on PAO-induced increase in protein tyrosine phosphorylation,MDCK strain I cells [8],attenuated the ability of PAO to increase protein tyrosine phosphorylation
"OCC(S)CS (centres unmarked) [2,3-dimercaptopropanol]",block of PAO-induced decrease in TER by reducing agent,"MDCK strain I cells [1]; MDCK cells preincubated 10 minutes with 200 μM β-mercaptoethanol or 100 μM 2,3-dimercaptopropanol, 10 μM PAO, TER 30 minutes later (FIG. 2b)",blocked
same,block of BAPTA-elicited decrease in TER,"MDCK strain I cells [1]; MDCK cells, 100 μM 2,3-dimercaptopropanol preincubation, 3 mM BAPTA (FIG. 2b)",did not block
same,reversal of PAO-stimulated catenin tyrosine phosphorylation,[7],is reversed; also recorded: reversed catenin tyrosine phosphorylation
[O]=[V]([O-])([O-])[O-] [vanadate],change in TER after addition of H2O2 to vanadate pretreated cells,MDCK strain I cells [1],caused a rapid decrease in TER
same,"change in TER over a longer time period, vanadate alone",MDCK strain I cells [1],caused a decrease in TER
same,"change in TER, vanadate alone",MDCK strain I cells [1],did not cause a decrease in TER
same,tyrosine phosphorylation of cadherin and β-catenin,[13],induced the tyrosine phosphorylation of E- or P-cadherin and β-catenin

# From patent US20020032151A1, “Modulating the permeability of a physiological barrier with an agent that modulates tyrosine phosphorylation” (priority 1993, published 2002)
